# Source: patent US6551602B1, “Skin care composition containing conjugated linoleic acid and a phenolic compound” (Conopco, Inc., priority 1999, dated 2003)
# Columns and labels:
# Assay type in all cases: cell-based
# [1] = test system: PGE2 production by human skin fibroblasts; assay: Fibroblast PGE2 assay (PMA-induced); conditions: PMA 10 nM
# Description: Fibroblasts PGE2 and ICAM Assay
# Intracellular adhesion molecules (ICAM) and PEG2 production by human skin fibroblasts can be induced by the inflammatory stimulus PMA (phorbal myristate acetate). PMA represents an external stressor which induces oxidative stress and inflammatory responses in cells. This model is used to model inflammation in vivo.
# (§1) Primary human foreskin fibroblasts at passage 2 (P2) were seeded into 96-well plates at 10000 cells/well and maintained for 24 hours in an atmosphere of 5% carbon dioxide in Dulbeccos Modified Eagles Medium (DMEM) supplemented with 10% foetal calf serum. The test substances as indicated in the table 7 below were added to fresh cell media (DMEM, supplemented with 10% foetal calf serum) in dimethylsulphoxide and ethanol final concentration<1%) in triplicate and incubated for a further 24 hours. Phorbal myristate acetate (PMA) (Sigma) was added 10 nM to the media and the cells incubated for a further 24 hours. […] The fibroblasts/media were then analysed as described below immediately or snap frozen in liquid nitrogen and stored at −70° C. for future analysis. The cells were then counted and data from the dot-blot analysis subsequently standardised to cell number.
# Prostaglandin E2 (PGE2) Assay
# Volumes of 50 μl culture medium were taken for PGE2 assay after gently shaking the culture plate. PGE2 levels in the medium were determined with a Biotrak PGE2 immunoassay kit (Amersham, UK). The assay is based on the competition between unlabelled PGE2 in the sample and a fixed quantity of horseradish peroxidase labelled PGE2 for a limited amount of fixed PGE2 specific antibody. Concentrations of unlabelled sample PGE2 are determined according to a standard curve which was obtained at the same time.
# [2] = test system: decorin synthesis in human dermal fibroblasts; assay: Dot blot assay for decorin protein in dermal fibroblast conditioned medium; conditions: 24 h, relative to vehicle treated control = 100 arbitrary units
# Description: Procedure for Measuring Procollagen-I and Decorin Synthesis in Human Dermal Fibroblasts
# Preparation of Dermal Fibroblast Conditioned Medium
# Primary human foreskin fibroblasts at passage 2 (P2) were seeded into 12-well plates at 10000 cells/cm^2 and maintained for 24 hours in an atmosphere of 5% carbon dioxide and 4% oxygen in Dulbeccos Modified Eagles Medium (DMEM) supplemented with 10% foetal calf serum. After this time the cells were washed with serum free DMEM and then incubated in fresh serum free DMEM for a further 60 hours.
# The fibroblast monolayers were then washed again with serum free DMEM. […] This fibroblast conditioned medium was either analysed immediately or snap frozen in liquid nitrogen and stored at −70° C. for future analysis. The cells were then counted and data from the dot-blot analysis subsequently standardised to cell number. […]
# Membranes prepared for decorin analysis were blocked with 3% (w/v) BSA/0.1% (v/v) Tween 20 in PBS, whilst those for procollagen-I analysis were blocked with 5% (w/v) non fat dried milk powder/0.05% Tween 20 in PBS. […] Dot intensity was assessed by computer-assisted image analysis using the quantification tools in ImageQuant™, standardised to cell number and the effects of various test reagents on decorin and procollagen-I synthesis were determined relative to a vehicle treated control value of 100 arbitrary units. […]
# [3] = test system: ICAM production by human skin fibroblasts; assay: Fibroblast ICAM-1 assay (PMA-induced); conditions: PMA 10 nM
# Description: as §1, with “Fibroblasts PGE2 and ICAM Assay Intracellular adhesion molecules (ICAM) and PEG2 production by human skin fibroblasts can be induced by the inflammatory stimulus PMA (phorbal myristate acetate). PMA represents an external stressor which induces oxidative stress and inflammatory responses in cells. This model is used to model inflammation in vivo. Primary” for “Primary”, “hours.” for “hours. Phorbal myristate acetate (PMA) (Sigma) was added 10 nM to the media and the cells incubated for a further 24 hours.”, “number. […] The soluble ICAM-1 was assessed with commercially available immunoenzymometric assay kit (R&D Systems). Concentrations of ICAM-1 in the samples were determined based on parallel running standard curve.” for “number.”
compound,measurement,setting,value
O=c1c(-c2ccc(O)cc2)coc2cc(O)cc(O)c12 [genistein],inhibition at 5 µM,"[1]; Homo sapiens, Skin fibroblast, genistein 5 μM, read-out: % of Inhibition of Fibroblast PGE2 Levels",52%
conjugated linoleic acid [CLA],Decorin,[2]; 0.1 μM CLA,68.29%
same,% of inhibition of fibroblast ICAM production,[3]; CLA 1 μM,27.7%
same,% of Inhibition of Fibroblast PGE2 Levels,[1]; CLA 0.1 μM,16.9%
same,% of Inhibition of Fibroblast PGE2 Levels,[1]; CLA 5 μM,14.5%
"O=C(O[C@@H]1Cc2c(O)cc(O)cc2O[C@@H]1c1cc(O)c(O)c(O)c1)c1cc(O)c(O)c(O)c1 [EGCG, epigallocatechin gallate]",Decorin,[2]; 0.5 μg/ml EGCG,−99.6%
same,% of inhibition of fibroblast ICAM production,[3]; EGCG 5 μM,4.5%
same,% of Inhibition of Fibroblast PGE2 Levels,[1]; EGCG 5 μM,35.6%
